{"source": "BindingDB's records for patent US12473263", "about": "(Icahn School Of Medicine At Mount Sinai, 2025)"}
{"target": "T1, Bromodomain-containing protein 4 [58-164] (Homo sapiens, UniProt O60885)", "T1 construct": "58-164", "experiment": "Fluorescence Anisotropy Binding Assay", "method": "Binding affinity of the newly synthesized compounds to the BRD4 BrD1 was assessed in a fluorescence anisotropy assay using a fluorescein isothiocyanate (FITC)-labeled MS417 as an assay probe (Zhang et al. 2008 op.cit.). Competition binding was performed with a BrD protein (0.25 to 1 μM) and the fluorescent probe (80 nM), and increasing concentration of unlabeled competing ligand in a PBS buffer (pH 7.4) in total volume of 80 μL. Measurements were obtained after 1 hour incubation of the fluorescent ligand and the protein at 25° C. with Safire 2 microplate reader (Tecan). In the assay, fluorescent ligand concentration was ≤2Kd, and protein concentration was set at which 50-80% of fluorescent ligand is bound. Dissociation constant of a competing ligand was calculated with the correction to Cheng-Prussoff equation introduced by Nicolovska-Coleska and colleagues [Nikolovska-Coleska, Z. et al., Anal Biochem 332, 261-273 (2004).", "units": {"Kd": "nM"}}
{"smiles": "COc1ccc2c(c1)n(Cc1ccccc1C)c(=N)n2CC(O)c1ccc(Cl)c(Cl)c1", "note": "(stereo unspecified) [US12473263, Example 1]", "Kd": 694}
{"smiles": "Cc1ccccc1Cn1c(=N)n(CC(O)c2ccc(Cl)c(Cl)c2)c2ccc(F)cc21", "note": "(stereo unspecified) [US12473263, Example 2]", "Kd": 269}
{"smiles": "Cc1ccccc1Cn1c(=N)n(CC(O)c2ccc(Cl)c(Cl)c2)c2ccc(Cl)cc21", "note": "(stereo unspecified) [US12473263, Example 3]", "Kd": 503}
{"smiles": "Cc1ccccc1Cc1cn(C[C@H](O)c2ccc(Cl)c(Cl)c2)c2ccccc12", "note": "[US12473263, Example 4]", "Kd": 640}
{"smiles": "Cc1ccccc1Cn1cc(Cn2c(=N)n(CC(O)c3ccc(Cl)c(Cl)c3)c3ccccc32)nn1", "note": "(stereo unspecified) [US12473263, Example 7]", "Kd": 551}
{"smiles": "Cc1cccc(Cn2cc(Cn3c(=N)n(CC(O)c4ccc(Cl)c(Cl)c4)c4ccccc43)nn2)c1", "note": "(stereo unspecified) [US12473263, Example 8]", "Kd": 556}
{"smiles": "N=c1n(Cc2cn(Cc3ccccc3F)nn2)c2ccccc2n1CC(O)c1ccc(Cl)c(Cl)c1", "note": "(stereo unspecified) [US12473263, Example 10]", "Kd": 371}
{"smiles": "N=c1n(Cc2cn(Cc3cccc(F)c3)nn2)c2ccccc2n1CC(O)c1ccc(Cl)c(Cl)c1", "note": "(stereo unspecified) [US12473263, Example 11]", "Kd": 548}
{"smiles": "N=c1n(Cc2cn(Cc3ccc(F)cc3)nn2)c2ccccc2n1CC(O)c1ccc(Cl)c(Cl)c1", "note": "(stereo unspecified) [US12473263, Example 12]", "Kd": 3860}
{"smiles": "N=c1n(Cc2cn(-c3ccccc3)nn2)c2ccccc2n1CC(O)c1ccc(Cl)c(Cl)c1", "note": "(stereo unspecified) [US12473263, Example 13]", "Kd": 65}
{"smiles": "N=c1n(Cc2cn(CCc3ccccc3)nn2)c2ccccc2n1CC(O)c1ccc(Cl)c(Cl)c1", "note": "(stereo unspecified) [US12473263, Example 15]", "Kd": 354}
